ChEMBL document CHEMBL1687806, “Susceptibility of treatment-naive hepatitis C virus (HCV) clinical isolates to HCV protease inhibitors” (Antimicrob Agents Chemother, 2010)

Tests used:
Hepatitis C virus [1] = experiment: Ratio of EC50 for wild type HCV1b harboring NS3 protease gene to EC50 for HCV1b B10 harboring NS3 protease S7A, R26K, V48I, T54S mutant; format: functional, Hepacivirus hominis, genotype 1b
Hepatitis C virus [2] = experiment: Antiviral activity against HCV1b harboring Q80K polymorphism in NS3 protease gene infected in human Huh7/Lunet cells assessed as inhibition of viral replication after 3 days by luciferase based transient-transfection assay; format: functional, organism-based, Hepacivirus hominis; settings: genotype 1b, Huh-7, 72 h
Hepatitis C virus [3] = experiment: Ratio of EC50 for wild type HCV1b harboring NS3 protease gene to EC50 for HCV1b harboring NS3 protease T54S mutant; format: functional, Hepacivirus hominis, genotype 1b
Hepatitis C virus [4] = experiment: Antiviral activity against HCV1b Con1 harboring NS3 protease gene infected in human Huh7/Lunet cells assessed as inhibition of viral replication after 3 days by luciferase based transient-transfection assay; format: functional, organism-based, Hepacivirus hominis; settings: Con1, Huh-7, 72 h
Hepatitis C virus [5] = experiment: Ratio of EC50 for wild type HCV1b harboring NS3 protease gene to EC50 for HCV1b A25 harboring NS3 protease T40A, T54S, V55I, I64L, P67S, Q80K, Q88H, S90A, L153I mutant; format: functional, Hepacivirus hominis, genotype 1b
Hepatitis C virus [6] = experiment: Ratio of EC50 for wild type HCV1b harboring NS3 protease gene to EC50 for HCV1b B13 harboring NS3 protease R26K, V46I, Q80L mutant; format: functional, Hepacivirus hominis, genotype 1b
Hepatitis C virus [7] = experiment: Ratio of EC50 for HCV1b harboring Q80K polymorphism in NS3 protease gene to EC50 for HCV1b harboring Q80Q polymorphism in NS3 protease gene; format: functional, Hepacivirus hominis, genotype 1b
Hepatitis C virus [8] = experiment: Antiviral activity against HCV1b harboring Q80Q polymorphism in NS3 protease gene infected in human Huh7/Lunet cells assessed as inhibition of viral replication after 3 days by luciferase based transient-transfection assay; format: functional, organism-based, Hepacivirus hominis; settings: genotype 1b, Huh-7, 72 h
Hepatitis C virus [9] = experiment: Ratio of EC50 for wild type HCV1b harboring NS3 protease gene to EC50 for HCV1b harboring NS3 protease Q80K mutant; format: functional, Hepacivirus hominis, genotype 1b
Hepatitis C virus [10] = experiment: Ratio of EC50 for wild type HCV1b harboring NS3 protease gene to EC50 for HCV1b harboring NS3 protease Q80K, T54S mutant; format: functional, Hepacivirus hominis, genotype 1b

| SMILES | Ratio EC50 (Hepatitis C virus [1]) | EC50 (Hepatitis C virus [2]) [nM] | Ratio EC50 (Hepatitis C virus [3]) | EC50 (Hepatitis C virus [4]) [nM] | Ratio EC50 (Hepatitis C virus [5]) | Ratio EC50 (Hepatitis C virus [6]) | Ratio EC50 (Hepatitis C virus [7]) | EC50 (Hepatitis C virus [8]) [nM] | Ratio EC50 (Hepatitis C virus [9]) | Ratio EC50 (Hepatitis C virus [10]) |
| --- | --- | --- | --- | --- | --- | --- | --- | --- | --- | --- |
| CCC[C@H](NC(=O)[C@@H]1[C@H]2CCC[C@H]2CN1C(=O)[C@@H](NC(=O)[C@@H](NC(=O)c1cnccn1)C1CCCCC1)C(C)(C)C)C(=O)C(=O)NC1CC1 [TELAPREVIR] | 6.2 | 72 | 5.6 | 377 | 1 | 1 | 0.5 | 176 | 1 | 2.3 |
| CC[C@@H]1C[C@]1(NC(=O)[C@@H]1C[C@@H]2CN1C(=O)[C@H](C(C)(C)C)NC(=O)OCC(C)(C)CCCCc1cccc3c1CN(C3)C(=O)O2)C(=O)NS(=O)(=O)C1CC1 [VANIPREVIR] | 1.2 | 0.41 | 0.5 | 0.7 | 2.2 | 1.5 | 1.5 | 0.27 | 6.6 | 3.7 |
| CC(C)(C)NC(=O)N[C@H](C(=O)N1C[C@H]2[C@@H]([C@H]1C(=O)NC(CC1CCC1)C(=O)C(N)=O)C2(C)C)C(C)(C)C (stereo partly specified) [BOCEPREVIR] | 9 | 91.5 | 4.7 | 276 | 1.7 | 1 | 0.4 | 201 | 0.9 | 1.7 |
| CCCCCOc1ccc(NC(=S)NC(=O)c2cccnc2)cc1C(F)(F)F |  |  |  | 28.2 |  |  |  |  |  |  |
| CC(C)(C)OC(=O)N[C@H]1CCCCC/C=C\[C@@H]2C[C@@]2(C(=O)NS(=O)(=O)C2CC2)NC(=O)[C@@H]2C[C@@H](OC(=O)N3Cc4cccc(F)c4C3)CN2C1=O [DANOPREVIR] | 1.2 | 0.62 | 1 | 0.6 | 2.7 | 1.7 | 1.7 | 0.25 | 6.3 | 5.3 |
| COc1ccc2c(O[C@@H]3C[C@H]4C(=O)N[C@]5(C(=O)NS(=O)(=O)C6CC6)C[C@H]5/C=C\CCCCN(C)C(=O)[C@@H]4C3)cc(-c3nc(C(C)C)cs3)nc2c1C [SIMEPREVIR] | 0.8 | 20.1 | 0.7 | 3.3 | 10.8 | 1 | 7.5 | 2.7 | 10.9 | 7.3 |
